How the values were obtained:
Format in all cases: biochemical
SIK3 = SIK3 (Homo sapiens, UniProt Q9Y2K2); assay: Enzymatic activity assay SIK3, RapidFire mass spectrometry (phosphorylation of CHK-peptide); settings: RapidFire MS, inhibition of SIK3; read-out: SIK3 RF IC50
Procedure: (§1) Assay description SIK1-3, RapidFire:
(§2) In the presence of SIK2 (resp. SIK1 or SIK3) and ATP the CHK-peptide ([…] with C-terminal arginine amide modification) were phosphorylated at one of the four feasible serine's. Only one phosphorylation is observed under the assay conditions. 60 nl of each compound dilution series (12 point; dilution factor 3, generally 30 μM to 170 pM) in DMSO were transferred by acoustic dispensing to the assay plate and 30 min pre-incubated (ambient temperature) after the addition of 5 μl SIK1 (5 nM) resp. 5 μl SIK2 (0.5 nM) or 7 μl SIK3 (1.5 nM) in assay-buffer (12.5 mM HEPES (pH 7.0), 10 mM magnesium acetate, 0.005% BSA). 10 μM CHK-peptide solution and 5 μl 100 μM ATP for SIK1 & SIK2 resp. 3 μl for SIK3 in assay-buffer were added and incubated ambient for 45 min. 40 μl 0.125% formic acid in water were added to quench the reaction. RapidFire (RF) Mass Spectrometry was utilized for data generation as described below. The multiple charged species (3-5 charges) for the phosphorylated and non-phosphorylated form measured by MRM (Multiple Reaction Monitoring; API5000 or 6500+) or EIC (Extracted Ion Current; QToF) were summed up and the ratio calculated (sum phosphorylated species/sum all species) for data evaluation. Normalization was performed by Genedata software based on the non-inhibition control DMSO and the commercially available SIK inhibitor @ 1 μM YKL-05-099 (CAS number 1936529-65-5). The results of the assay are expressed in half-maximal inhibitory concentrations (IC50s) and are summarized below in Table 1.
(§3) Samples were aspirated by vacuum for max. 600 ms and loaded to C4-cartridge (Agilent; #G9203A) for 3000 ms@1.5 ml/min with 0.1% formic acid in water. Afterwards samples were transferred to the APT5000 (APT6500+) or QToF mass spectrometer for 4000 ms@1.25 ml/min with 90% acetonitrile; 10% water; 0.007% TFA; 0.093 formic acid. The cartridge was reconditioned for additional 500 ms with 0.1% formic acid in water
(§4) All MS analyses using the following MS-setup in MRM mode: Electrospray positive; Ion Spray Voltage: 4000V; Temperature: 550° C.; Collision Gas: 5; Curtain Gas: 15; Gas1: 40; Gas 2: 42; EP: 10
(§5) MS-Setup Agilent QToF 6545
(§6) All MS analyses using the following MS-setup in Mode MS: Dual AJS Electrospray positive; VCap: 3000V; Drying & Sheath gas: 340° C.@81/min; Nebulizer: 60 psig; Nozzle Voltage: 2000V; Fragmentor: 130V; Skimmer: 35V; Oct1 RF Vpp: 700V; Ref masses on@5spectra/s

SIK2 = SIK2 (Homo sapiens, UniProt Q9H0K1); assay: Enzymatic activity assay SIK2, RapidFire mass spectrometry (phosphorylation of CHK-peptide); settings: RapidFire MS, inhibition of SIK2; read-out: SIK2 RF IC50
Chain of SIK2 (Q9H0K1 whole entry): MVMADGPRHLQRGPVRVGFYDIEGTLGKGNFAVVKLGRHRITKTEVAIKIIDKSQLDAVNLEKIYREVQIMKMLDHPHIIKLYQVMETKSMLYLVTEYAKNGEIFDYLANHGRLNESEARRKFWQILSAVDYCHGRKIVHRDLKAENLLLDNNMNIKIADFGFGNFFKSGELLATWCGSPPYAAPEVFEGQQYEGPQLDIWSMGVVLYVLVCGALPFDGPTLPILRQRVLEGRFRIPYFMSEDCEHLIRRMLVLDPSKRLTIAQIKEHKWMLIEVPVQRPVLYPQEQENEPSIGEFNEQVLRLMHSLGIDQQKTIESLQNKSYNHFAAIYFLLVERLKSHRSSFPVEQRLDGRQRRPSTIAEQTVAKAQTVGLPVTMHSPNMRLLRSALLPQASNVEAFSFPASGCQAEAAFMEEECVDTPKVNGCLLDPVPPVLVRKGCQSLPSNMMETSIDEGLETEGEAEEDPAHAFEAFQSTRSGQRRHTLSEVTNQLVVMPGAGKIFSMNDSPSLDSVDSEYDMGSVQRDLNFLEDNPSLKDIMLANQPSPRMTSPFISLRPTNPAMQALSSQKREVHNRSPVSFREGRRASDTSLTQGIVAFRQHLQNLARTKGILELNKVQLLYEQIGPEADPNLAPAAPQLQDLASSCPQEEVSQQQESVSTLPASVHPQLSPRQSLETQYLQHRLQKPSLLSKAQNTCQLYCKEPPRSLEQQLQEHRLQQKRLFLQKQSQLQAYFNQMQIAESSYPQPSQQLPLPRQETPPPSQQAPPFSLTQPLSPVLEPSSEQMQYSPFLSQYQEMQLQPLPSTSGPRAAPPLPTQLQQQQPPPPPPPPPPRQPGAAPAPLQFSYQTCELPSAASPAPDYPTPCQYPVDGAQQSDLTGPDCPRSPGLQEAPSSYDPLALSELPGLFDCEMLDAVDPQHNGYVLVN
Procedure: as §1
as §2, with “Only one phosphorylation is observed under the assay conditions. 60 nl of each compound dilution series (12 point; dilution factor 3, generally 30 μM to 170 pM) in DMSO were transferred by acoustic dispensing to the assay plate and 30 min pre-incubated (ambient temperature) after the addition of 5 μl SIK1 (5 nM) resp.” left out, “1936529-65-5).” for “1936529-65-5). The results of the assay are expressed in half-maximal inhibitory concentrations (IC50s) and are summarized below in Table 1.”
as §3, §4, §5, §6

SIK1 = SIK1 (Homo sapiens, UniProt P57059); assay: Enzymatic activity assay SIK1, RapidFire mass spectrometry (phosphorylation of CHK-peptide); settings: RapidFire MS, inhibition of SIK1; read-out: SIK1 RF IC50
Chain of SIK1 (P57059 whole entry): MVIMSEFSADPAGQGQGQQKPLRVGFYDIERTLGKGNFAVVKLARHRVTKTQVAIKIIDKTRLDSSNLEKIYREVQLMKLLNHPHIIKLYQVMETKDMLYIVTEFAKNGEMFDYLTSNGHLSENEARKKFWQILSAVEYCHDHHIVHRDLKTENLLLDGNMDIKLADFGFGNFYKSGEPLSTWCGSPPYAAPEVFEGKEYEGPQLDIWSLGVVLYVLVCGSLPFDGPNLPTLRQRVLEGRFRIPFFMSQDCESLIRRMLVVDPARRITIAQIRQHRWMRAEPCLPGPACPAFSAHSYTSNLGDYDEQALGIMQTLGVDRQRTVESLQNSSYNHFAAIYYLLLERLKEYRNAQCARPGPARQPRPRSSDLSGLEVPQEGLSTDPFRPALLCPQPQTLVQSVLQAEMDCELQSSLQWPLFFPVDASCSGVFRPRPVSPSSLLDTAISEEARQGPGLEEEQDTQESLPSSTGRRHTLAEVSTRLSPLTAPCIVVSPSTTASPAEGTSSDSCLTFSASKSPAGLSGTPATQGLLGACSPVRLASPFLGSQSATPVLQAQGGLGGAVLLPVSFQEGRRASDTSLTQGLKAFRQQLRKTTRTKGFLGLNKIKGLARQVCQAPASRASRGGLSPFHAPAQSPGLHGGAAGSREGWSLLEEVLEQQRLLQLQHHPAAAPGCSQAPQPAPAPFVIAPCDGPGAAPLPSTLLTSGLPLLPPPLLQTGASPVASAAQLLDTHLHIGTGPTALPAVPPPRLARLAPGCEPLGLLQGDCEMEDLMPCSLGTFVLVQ
Procedure: as §1, §2, §3, §4, §5, §6

Chain of SIK3 (Q9Y2K2 whole entry): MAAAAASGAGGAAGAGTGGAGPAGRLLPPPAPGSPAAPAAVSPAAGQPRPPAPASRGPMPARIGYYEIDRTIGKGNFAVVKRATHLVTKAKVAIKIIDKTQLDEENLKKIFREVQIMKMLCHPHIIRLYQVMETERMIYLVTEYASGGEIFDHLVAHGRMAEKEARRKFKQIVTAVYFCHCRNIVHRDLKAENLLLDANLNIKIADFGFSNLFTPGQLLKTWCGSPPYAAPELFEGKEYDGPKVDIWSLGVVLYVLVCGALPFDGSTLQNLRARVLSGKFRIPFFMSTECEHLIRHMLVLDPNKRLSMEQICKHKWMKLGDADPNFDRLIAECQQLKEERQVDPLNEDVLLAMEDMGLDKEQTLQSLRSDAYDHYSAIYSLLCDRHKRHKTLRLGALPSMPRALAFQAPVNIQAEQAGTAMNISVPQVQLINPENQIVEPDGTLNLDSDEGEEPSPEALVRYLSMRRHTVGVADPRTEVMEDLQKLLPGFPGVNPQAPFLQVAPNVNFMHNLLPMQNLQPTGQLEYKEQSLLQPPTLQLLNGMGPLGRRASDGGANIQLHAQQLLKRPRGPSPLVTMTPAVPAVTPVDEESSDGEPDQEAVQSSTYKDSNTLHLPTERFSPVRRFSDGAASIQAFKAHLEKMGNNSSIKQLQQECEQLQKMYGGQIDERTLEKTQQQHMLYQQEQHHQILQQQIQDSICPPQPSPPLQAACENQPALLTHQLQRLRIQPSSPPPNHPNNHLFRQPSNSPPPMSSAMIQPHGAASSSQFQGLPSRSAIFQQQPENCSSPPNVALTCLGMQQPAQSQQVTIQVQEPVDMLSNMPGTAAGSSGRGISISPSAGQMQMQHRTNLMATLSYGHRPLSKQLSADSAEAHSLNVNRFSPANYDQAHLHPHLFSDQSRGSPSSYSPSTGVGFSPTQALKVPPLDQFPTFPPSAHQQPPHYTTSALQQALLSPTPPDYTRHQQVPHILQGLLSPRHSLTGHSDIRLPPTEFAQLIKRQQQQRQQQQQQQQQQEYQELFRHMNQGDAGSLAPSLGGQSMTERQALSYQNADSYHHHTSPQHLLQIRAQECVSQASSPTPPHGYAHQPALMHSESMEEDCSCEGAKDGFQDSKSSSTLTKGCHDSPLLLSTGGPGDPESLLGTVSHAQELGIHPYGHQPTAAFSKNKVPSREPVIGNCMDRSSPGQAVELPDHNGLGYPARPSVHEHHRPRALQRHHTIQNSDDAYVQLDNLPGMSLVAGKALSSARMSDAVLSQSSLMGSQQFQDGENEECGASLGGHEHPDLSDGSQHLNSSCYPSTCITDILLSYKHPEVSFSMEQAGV

Structure (SMILES) | IC50 (SIK3) [nM] | IC50 (SIK2) [nM] | IC50 (SIK1) [nM]
Cc1ccc(Nc2cc3ncn(-c4ccc(C(C)O)c(-c5cn(CC6CC6)nc5C)n4)c3cc2F)nn1 (stereo not drawn) [Example 356, 1-[2-[1-(cyclopropylmethyl)-3-methyl-pyrazol-4-yl]-6-[6-fluoro-5-[(6-methylpyridazin-3-yl)amino]benzimidazol-1-yl]-3-pyridyl]ethanol] | 1.7 | 0.9 | 245
Cc1ccc(Nc2ccc3c(c2)ncn3-c2ccc(C(C)O)c(-c3cccc4[nH]nnc34)n2)nn1 (stereo not drawn) [Example 194, 1-[2-(1H-Benzotriazol-4-yl)-6-[5-[(6-methylpyridazin-3-yl)amino]benzimidazol-1-yl]-3-pyridyl]ethanol] | 29.5 | 288 | 3330
COc1c(O)cccc1-c1nc(-n2cnc3cc(Nc4ccc(C)nn4)ccc32)ccc1C(C)O (stereo not drawn) [Example 203, 3-[3-(1-Hydroxyethyl)-6-[5-[(6-methylpyridazin-3-yl)amino]benzimidazol-1-yl]-2-pyridyl]-2-methoxy-phenol; formic acid] | 55.4 | 520 | 14400
Cc1ncc(Nc2cc3ncn(-c4ccc([C@H](C)O)c(-n5nc(C#N)cc5C)n4)c3cc2F)cc1F [Example 391, 1-[6-[6-fluoro-5-[(5-fluoro-6-methyl-3-pyridyl)amino]benzimidazol-1-yl]-3-[(1S)-1-hydroxyethyl]-2-pyridyl]-5-methyl-pyrazole-3-carbonitrile] | 2 | 4.5 | 23
COc1cc2ncn(-c3ccc([C@H](C)O)c(-c4ccc(C#N)cc4)n3)c2cc1OC [Example 39, (S)-4-(6-(5,6-Dimethoxy-1H-benzo[d]imidazol-1-yl)-3-(l-hydroxyethyl)pyridin-2-yl)benzonitrile] | 178 | 24.9 | 152
Cc1ccc(Nc2ccc3c(c2)ncn3-c2ccc(C(C)O)c(-n3nc(C(F)(F)F)c4c3CCN(C3COC3)C4)n2)nn1 (stereo not drawn) [Example 177, 1-[6-[5-[(6-Methylpyridazin-3-yl)amino]benzimidazol-1-yl]-2-[5-(oxetan-3-yl)-3-(trifluoromethyl)-6,7-dihydro-4H-pyrazolo[4,3-c]pyridin-1-yl]-3-pyridyl]ethanol] | 3.1 | 2.8 | 253
Cc1ccc(Nc2ccc3ncn(-c4ccc(C(C)O)c(N5CC[C@H]6NCC[C@@H]65)n4)c3c2)nn1 (stereo partly drawn) [Example 126, 1-[6-[6-[(6-Methylpyridazin-3-yl)amino]benzimidazol-1-yl]-2-[(3aS,6aR)-2,3,3a,5,6,6a-hexahydro-1H-pyrrolo[3,2-b]pyrrol-4-yl]-3-pyridyl]ethanol; formic acid] | 228 | 74.5 | 65
Cc1ccc(Nc2cc3ncn(-c4ccc([C@@H](C)O)c(-n5nc(C#N)cc5C)n4)c3cc2F)nn1 [Example 237, 1-[6-[6-Fluoro-5-[(6-methylpyridazin-3-yl)amino]benzimidazol-1-yl]-3-[(1R)-1-hydroxyethyl]-2-pyridyl]-5-methyl-pyrazole-3-carbonitrile] | 52.8 | 49.7 | 7820
Cc1cc(C#N)nn1-c1nc(-n2cnc3ccc(OC4CCN(C5COC5)CC4)cc32)ccc1C(C)O (stereo not drawn) [Example 114, 1-[3-(1-Hydroxyethyl)-6-[6-[[1-(oxetan-3-yl)-4-piperidyl]oxy]benzimidazol-1-yl]-2-pyridyl]-5-methyl-pyrazole-3-carbonitrile] | 606 | 47 | 49
Cc1ccc(Nc2ccc3c(c2)ncn3-c2ccc(C(C)O)c(-c3ccoc3C#N)n2)nn1 (stereo not drawn) [Example 204, 3-[3-(1-Hydroxyethyl)-6-[5-[(6-methylpyridazin-3-yl)amino]benzimidazol-1-yl]-2-pyridyl]furan-2-carbonitrile] | 34.4 | 141 | 9950
Cc1ccc(Nc2ccc3c(c2)ncn3-c2ccc(C(C)O)c(-n3nc(C)cc3C)n2)nn1 (stereo not drawn) [Example 108, 1-[2-(3,5-Dimethylpyrazol-1-yl)-6-[5-[(6-methylpyridazin-3-yl)amino]benzimidazol-1-yl]-3-pyridyl]ethanol; formic acid] | 6.4 | 42.6 | 3820
Cc1ccc(Nc2ccc3c(c2)ncn3-c2ccc(CO)c(-n3nc(C#N)cc3C)n2)nn1 [Example 270, 5-Methyl-1-[3-methylol-6-[5-[(6-methylpyridazin-3-yl)amino]benzimidazol-1-yl]-2-pyridyl]pyrazole-3-carbonitrile; formic acid] | 0.2 | 0.8 | 134
Cc1ccc(Nc2ccc3c(c2)ncn3-c2ccc(C(C)O)c(-n3nc(C(F)F)cc3C)n2)nn1 (stereo not drawn) [Example 129, 1-[2-[3-(Difluoromethyl)-5-methyl-pyrazol-1-yl]-6-[5-[(6-methylpyridazin-3-yl)amino]benzimidazol-1-yl]-3-pyridyl]ethanol; formic acid] | 1.2 | 3.9 | 472
Cc1ccc(Nc2ccc3c(c2)ncn3-c2ccc(CO)c(-c3cn(CC(F)(F)F)nc3C)n2)nn1 [Example 315, [6-[5-[(6-methylpyridazin-3-yl)amino]benzimidazol-1-yl]-2-[3-methyl-1-(2,2,2-trifluoroethyl)pyrazol-4-yl]-3-pyridyl]methanol] | 2.9 | 7.3 | 1090
Cc1ccc(Nc2ccc3c(c2)ncn3-c2ccc(C(C)O)c(N3CCCS3(=O)=O)n2)nn1 (stereo not drawn) [Example 85, 1-[2-(1,1-dioxo-1,2-thiazolidin-2-yl)-6-[5-[(6-methylpyridazin-3-yl)amino]benzimidazol-1-yl]-3-pyridyl]ethanol] | 1910 | 818 | 1070
Cc1cc(C#N)nn1-c1nc(-n2cnc3ccc(-c4ccn(C)c(=O)n4)cc32)ccc1C(C)O (stereo not drawn) [Example 336, 1-[3-(1-hydroxyethyl)-6-[6-(1-methyl-2-oxo-pyrimidin-4-yl)benzimidazol-1-yl]-2-pyridyl]-5-methyl-pyrazole-3-carbonitrile] | 139 | 28.6 | 29
Cc1ccc(Nc2ccc3c(c2)ncn3-c2ccc(C(O)C(F)F)c(-n3nc(C#N)cc3C)n2)nn1 (stereo not drawn) [Example 198, 1-[3-(2,2-Difluoro-1-hydroxy-ethyl)-6-[5-[(6-methylpyridazin-3-yl)amino]benzimidazol-1-yl]-2-pyridyl]-5-methyl-pyrazole-3-carbonitrile] | 1.8 | 7 | 391
Cc1ccc(Nc2ccc3ncn(-c4ccc(C(O)C(F)F)c(-n5nc(C#N)cc5C)n4)c3c2)nn1 (stereo not drawn) [Example 199, 1-[3-(2,2-Difluoro-1-hydroxy-ethyl)-6-[6-[(6-methylpyridazin-3-yl)amino]benzimidazol-1-yl]-2-pyridyl]-5-methyl-pyrazole-3-carbonitrile] | 371 | 171 | 245
Cc1cc(C#N)nn1-c1nc(-n2cnc3cc(Nc4ccc(OC5COC5)nn4)ccc32)ccc1C(C)O (stereo not drawn) [Example 207, 1-[3-(1-Hydroxyethyl)-6-[5-[[6-(oxetan-3-yloxy)pyridazin-3-yl]amino]benzimidazol-1-yl]-2-pyridyl]-5-methyl-pyrazole-3-carbonitrile] | 2.6 | 3.7 | 27
